Legend:
[1] = xn = mol fraction of the nth substance listed; conditions: 298.15 K; for surface tension liquid-gas: Drop volume; for mass density: 101.3 kPa, Liquid
[2] = refractive index (Na D-line) (dimensionless); xn = mol fraction of the nth substance listed; conditions: 298.15 K, 101.3 kPa, Liquid, Standard Abbe refractometry
[3] = 298.15 K; for surface tension liquid-gas: Drop volume; for mass density: 101.33 kPa, Liquid
[4] = refractive index (Na D-line) (dimensionless); conditions: 298.15 K; 101.33 kPa; Liquid; Standard Abbe refractometry

CCCCCCCO [heptan-1-ol] + CCCCCCCC
Conditions | refractive index, [2] | surface tension liquid-gas, [1] [mN/m]
x2 = 0.0616 | 1.4205 | –
x2 = 0.0995 | 1.4194 | 25.35
x2 = 0.1699 | 1.4174 | 24.68
x2 = 0.1767 | 1.417 | 24.63
x2 = 0.2957 | 1.4136 | 23.72
x2 = 0.3286 | 1.4126 | 23.52
x2 = 0.353 | 1.4119 | 23.37
x2 = 0.4567 | 1.4091 | 22.79
x2 = 0.4918 | 1.4081 | 22.65
x2 = 0.5587 | 1.4062 | 22.38
x2 = 0.5956 | 1.4051 | 22.24
x2 = 0.6564 | 1.4036 | 22.04
x2 = 0.6626 | – | 22.01
x2 = 0.6629 | 1.4034 | –
x2 = 0.783 | 1.4002 | 21.68
x2 = 0.7981 | 1.3999 | 21.63
x2 = 0.8409 | 1.3988 | 21.53
x2 = 0.9111 | 1.3971 | 21.38
x2 = 0.958 | – | 21.28

CCO [ethanol]
Conditions | mass density [kg/m3] | refractive index | surface tension liquid-gas [mN/m]
[3] | 785.15 | – | 21.74
[4] | – | 1.3593 | –

CCCCO [butan-1-ol]
Conditions | mass density [kg/m3] | refractive index | surface tension liquid-gas [mN/m]
[3] | 805.76 | – | 24.02
[4] | – | 1.3973 | –

CCCCCCCC [octane] + CCO
Conditions | mass density [kg/m3] | refractive index | surface tension liquid-gas [mN/m]
[1], x1 = 0.0131 | 781.56 | – | –
[1], x1 = 0.0523 | 771.81 | – | –
[1], x1 = 0.0686 | – | – | 21.37
[1], x1 = 0.0788 | 766.05 | – | –
[1], x1 = 0.1132 | – | – | 21.2
[1], x1 = 0.1433 | 758.82 | – | –
[1], x1 = 0.1721 | – | – | 21.06
[1], x1 = 0.1881 | 754.27 | – | –
[1], x1 = 0.2228 | 747.52 | – | –
[1], x1 = 0.2616 | 742.94 | – | –
[1], x1 = 0.2867 | – | – | 20.88
[1], x1 = 0.3011 | 738.29 | – | –
[1], x1 = 0.3571 | – | – | 20.82
[1], x1 = 0.3725 | 734.06 | – | –
[1], x1 = 0.3985 | 727.44 | – | –
[1], x1 = 0.4536 | 725.27 | – | –
[1], x1 = 0.4544 | – | – | 20.77
[1], x1 = 0.4898 | – | – | 20.77
[1], x1 = 0.5175 | 721.13 | – | –
[1], x1 = 0.5401 | – | – | 20.78
[1], x1 = 0.5832 | 716.94 | – | –
[1], x1 = 0.5865 | – | – | 20.79
[1], x1 = 0.6299 | – | – | 20.8
[1], x1 = 0.6457 | – | – | 20.81
[1], x1 = 0.669 | – | – | 20.84
[1], x1 = 0.6709 | 713.14 | – | –
[1], x1 = 0.7226 | 708.8 | – | –
[1], x1 = 0.765 | – | – | 20.89
[1], x1 = 0.8041 | – | – | 20.92
[1], x1 = 0.8191 | – | – | 20.94
[1], x1 = 0.8201 | 706.53 | – | –
[1], x1 = 0.8707 | 702.91 | – | –
[1], x1 = 0.9095 | – | – | 21.01
[1], x1 = 0.9212 | – | – | 21.05
[2], x1 = 0.0686 | – | 1.3641 | –
[2], x1 = 0.1132 | – | 1.367 | –
[2], x1 = 0.1721 | – | 1.3705 | –
[2], x1 = 0.1834 | – | 1.3711 | –
[2], x1 = 0.2867 | – | 1.3762 | –
[2], x1 = 0.35 | – | 1.3789 | –
[2], x1 = 0.3571 | – | 1.3792 | –
[2], x1 = 0.4544 | – | 1.3827 | –
[2], x1 = 0.4898 | – | 1.3839 | –
[2], x1 = 0.5401 | – | 1.3853 | –
[2], x1 = 0.5865 | – | 1.3866 | –
[2], x1 = 0.6299 | – | 1.3877 | –
[2], x1 = 0.6457 | – | 1.388 | –
[2], x1 = 0.669 | – | 1.3885 | –
[2], x1 = 0.765 | – | 1.3906 | –
[2], x1 = 0.8191 | – | 1.3917 | –
[2], x1 = 0.9095 | – | 1.3934 | –
[2], x1 = 0.9212 | – | 1.3939 | –

CCCCCCCO [heptan-1-ol]
Conditions | mass density [kg/m3] | refractive index | surface tension liquid-gas [mN/m]
[3] | 818.75 | – | 26.47
[4] | – | 1.4224 | –

CCCCCCCC [octane] + CCCO
Conditions | refractive index, [2] | surface tension liquid-gas, [1] [mN/m]
x1 = 0.0237 | 1.3835 | –
x1 = 0.123 | 1.3852 | 22.38
x1 = 0.1859 | 1.3862 | 22.05
x1 = 0.2349 | 1.3869 | 21.81
x1 = 0.29 | 1.3877 | 21.66
x1 = 0.3454 | 1.3884 | 21.53
x1 = 0.3547 | 1.3885 | 21.51
x1 = 0.4493 | 1.3896 | 21.36
x1 = 0.5154 | 1.3903 | 21.3
x1 = 0.5218 | 1.3904 | 21.29
x1 = 0.6224 | 1.3914 | 21.22
x1 = 0.6308 | 1.3915 | 21.21
x1 = 0.6938 | 1.3921 | 21.21
x1 = 0.7592 | 1.3927 | 21.17
x1 = 0.7884 | 1.393 | 21.17
x1 = 0.8449 | 1.3935 | 21.16
x1 = 0.8918 | 1.394 | 21.16
x1 = 0.9245 | 1.3943 | 21.16
